Measured values as given in US7935711B2, “HIV inhibiting 2-(4-cyanophenylamino) pyrimidine oxide derivatives” (priority 2005, dated 2011).

Key:
[1] = tested on: HIV strain F, mutations K101E and K103N in HIV reverse transcriptase; test: Antiviral spectrum, cellular assay, strain F; format: cell-based; settings: Human immunodeficiency virus 1, read-out: pEC50 F (converted)
Procedure: (§1) Because of the increasing emergence of drug resistant HIV strains, the present compounds were tested for their potency against clinically isolated HIV strains harboring several mutations. These mutations are associated with resistance to reverse transcriptase inhibitors and result in viruses that show various degrees of phenotypic cross-resistance to the currently commercially available drugs such as for instance AZT and delavirdine.
(§2) The antiviral activity of the compound of the present invention is evaluated in the presence of wild type HIV and HIV mutants bearing mutations at the reverse transcriptase gene. The activity of the compounds is evaluated using a cellular assay and the residual activity is expressed in pEC50 values. The columns IIIB and A-G in the table list the pEC50 values against various strains IIIB, A-G.
Strain F contains mutations K101E and K103N in HIV reverse transcriptase.

[2] = tested on: HIV strain D, mutation Y188L and S162K in HIV reverse transcriptase; test: Antiviral spectrum, cellular assay, strain D; format: cell-based; settings: Human immunodeficiency virus 1, read-out: pEC50 D (converted)
Procedure: as §1, §2
Strain D contains mutation Y188L and S162K in HIV reverse transcriptase, […]

[3] = tested on: wild type HIV-LAI strain (IIIB); test: Antiviral spectrum, cellular assay, strain IIIB; format: cell-based; settings: Human immunodeficiency virus 1
Procedure: as §1, §2
Strain IIIB is wild type HIV-LAI strain;

[4] = tested on: HIV strain B, mutation K103N in HIV reverse transcriptase; test: Antiviral spectrum, cellular assay, strain B; format: cell-based; settings: Human immunodeficiency virus 1, read-out: pEC50 B (converted)
Procedure: as §1, §2
Strain B contains mutation K103N in HIV reverse transcriptase, […]

[5] = tested on: HIV strain E, mutations L100I and K103N in HIV reverse transcriptase; test: Antiviral spectrum, cellular assay, strain E; format: cell-based; settings: Human immunodeficiency virus 1, read-out: pEC50 E (converted)
Procedure: as §1, §2
Strain E contains mutations L100I and K103N in HIV reverse transcriptase, […]

[6] = tested on: HIV strain C, mutation L100I in HIV reverse transcriptase; test: Antiviral spectrum, cellular assay, strain C; format: cell-based; settings: Human immunodeficiency virus 1, read-out: pEC50 C (converted)
Procedure: as §1, §2
Strain C contains mutation L100I in HIV reverse transcriptase, […]

[7] = tested on: HIV strain A, mutation Y181C in HIV reverse transcriptase; test: Antiviral spectrum, cellular assay, strain A; format: cell-based; settings: Human immunodeficiency virus 1, read-out: pEC50 A (converted)
Procedure: as §1, §2
Strain A contains mutation Y181C in HIV reverse transcriptase, […]

| Structure (SMILES) | EC50 [1] [nM] | EC50 [2] [nM] | EC50 [3] [nM] | melting point [°C] | EC50 [4] [nM] | EC50 [5] [nM] | EC50 [6] [nM] | EC50 [7] [nM] |
| --- | --- | --- | --- | --- | --- | --- | --- | --- |
| Cc1cc(C#N)cc(C)c1Oc1nc(Nc2ccc(C#N)cc2)[n+]([O-])c(N)c1Br [Compound 1] | 1.05 | 0.603 | 0.575 | 271 | 1.41 | 1.07 | 0.631 | 0.631 |
| Cc1cc(C#N)cc(C)c1Oc1nc(Nc2ccc(C#N)cc2)nc(N)c1Br [Compound A, 4-[[6-amino-5-bromo-2-[(4-cyanophenyl)amino]-4-pyrimidinyl]oxy]-3,5-dimethylbenzonitrile, reference compound] | 4.57 | 2.45 | 2.82 | – | 1.78 | 8.13 | 2.88 | 10 |
